From patent publication US5256788A, “Moranoline derivatives and their production and the use of moranoline and its derivatives as a stabilizing agent for enzymes” (Nippon Shinyaku Co. Ltd., priority 1989, dated 1993)

What was measured:
immobilized CGTase = target: T1, immobilized CGTase (Geobacillus stearothermophilus, UniProt P31797); assay: Stabilization of immobilized CGTase in sugar transfer reaction solution of moranoline (enzyme activity retention rate); format: biochemical, Bacillus stearothermophilus; conditions: 2.5 w/v% moranoline and 25 w/v% Amicol No. 6L
T1 construct: purchased Hayashibara Biochemical Research Institute
T1 sequence (P31797 32-711): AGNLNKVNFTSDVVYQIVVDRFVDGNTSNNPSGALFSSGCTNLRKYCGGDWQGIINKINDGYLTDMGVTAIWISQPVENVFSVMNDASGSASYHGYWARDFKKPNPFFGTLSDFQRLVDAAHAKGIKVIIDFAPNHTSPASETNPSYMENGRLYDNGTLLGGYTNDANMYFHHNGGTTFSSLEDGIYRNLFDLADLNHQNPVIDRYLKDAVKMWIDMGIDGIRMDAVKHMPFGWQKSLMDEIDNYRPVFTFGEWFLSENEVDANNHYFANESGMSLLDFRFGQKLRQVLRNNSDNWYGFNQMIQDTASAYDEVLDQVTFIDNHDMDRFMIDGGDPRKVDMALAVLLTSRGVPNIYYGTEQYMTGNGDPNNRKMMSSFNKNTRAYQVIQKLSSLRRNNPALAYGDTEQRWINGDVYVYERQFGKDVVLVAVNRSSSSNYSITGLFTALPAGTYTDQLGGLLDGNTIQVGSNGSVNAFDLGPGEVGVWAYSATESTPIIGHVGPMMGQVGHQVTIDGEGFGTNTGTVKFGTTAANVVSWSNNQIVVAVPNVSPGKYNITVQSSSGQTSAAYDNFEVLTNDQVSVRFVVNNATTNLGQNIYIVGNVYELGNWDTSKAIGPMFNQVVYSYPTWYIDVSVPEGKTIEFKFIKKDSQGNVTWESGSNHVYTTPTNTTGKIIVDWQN
Experimental: (§1) The immobilized CGTase, 10 ml, obtained in Reference Example 1 was added to 100 ml of aqueous solution with the pH being not adjusted containing 2.5 w/v% of moranoline and 25 w/v% of Amicol No. 6L [manufactured by Nichiden Chemical Co., Ltd.] followed by rotary shaking at 55° C. Thereafter, beads formed and (after a definite period of time as illustrated below) the beads (immobilized CGTase) were filtered through a glass filter. After thoroughly washing with water, the enzyme activity of the immobilized CGTase was determined as follows.
(§2) The beads (washed immobilized CGTase after a definite period of time at 55° C.), 1 ml, was added to 10 ml of aqueous solution with the pH being not adjusted containing 2.5 w/v% of moranoline and 25 w/v% of Amicol No. 6L followed by reacting at 55° C. for 24 hours. The reaction solution 3 ml, was passed through 7 ml of strongly acidic ion exchange resin DOWEX 50W×2 (H ). After thoroughly washing with water, elution was performed with 0.5N ammonia water. The eluate was concentrated to dryness under reduced pressure and the residue was dissolved in 3 ml of water. 10 μl of the solution was applied to and analyzed by high performance liquid chromatography to determine a concentration of the unreacted moranoline. The analytical conditions for high performance liquid chromatography were as follows: column (Nucleosil 5NH2, 5 μm, 4 mm i.d.×25 cm), developing solvent acetonitrile-water=70:30), detector (Hitachi 655A-30, RI detector), data processor (Hitachi D-2000). [formula]
Where the reaction progress rate was made 100 when rotary shaking started at 55° C., a relative reaction progress rate after a definite period of time passed was calculated according to the above equation. The thus obtained value was made an enzyme activity retention rate. The fact that the enzyme activity of the immobilized CGTase was stabilized by the moranoline in accordance with the present invention is clearly shown.
as §1, with “Example A” for “Example 1”, “C. After” for “C. Thereafter, beads formed and (after”, “time passed,” for “time as illustrated below)”, “follows. (Method for determination of enzyme activity of immobilized CGTase)” for “follows.”
as §2, with “24 hours” for “24 hours.”, “reaction liquid,” for “reaction solution”, “DOWEX 50W X 2 (H+).” for “DOWEX 50W×2 (H ).”, “mm i.d. X 25” for “mm i.d.×25”
Where the reaction progress rate was made 100 when rotary shaking started at 55° C., a relative reaction progress rate after a definite period of time passed was calculated according to the above equation. The thus obtained value was made an enzyme activity retention rate.

β-amylase = β-amylase (Glycine max, UniProt P10538); assay: Stabilization of β-amylase by moranoline; format: biochemical, soybean; conditions: 6000 μg/ml, incubated at 65° C., pH 4.8
Sequence of β-amylase (P10538 whole entry): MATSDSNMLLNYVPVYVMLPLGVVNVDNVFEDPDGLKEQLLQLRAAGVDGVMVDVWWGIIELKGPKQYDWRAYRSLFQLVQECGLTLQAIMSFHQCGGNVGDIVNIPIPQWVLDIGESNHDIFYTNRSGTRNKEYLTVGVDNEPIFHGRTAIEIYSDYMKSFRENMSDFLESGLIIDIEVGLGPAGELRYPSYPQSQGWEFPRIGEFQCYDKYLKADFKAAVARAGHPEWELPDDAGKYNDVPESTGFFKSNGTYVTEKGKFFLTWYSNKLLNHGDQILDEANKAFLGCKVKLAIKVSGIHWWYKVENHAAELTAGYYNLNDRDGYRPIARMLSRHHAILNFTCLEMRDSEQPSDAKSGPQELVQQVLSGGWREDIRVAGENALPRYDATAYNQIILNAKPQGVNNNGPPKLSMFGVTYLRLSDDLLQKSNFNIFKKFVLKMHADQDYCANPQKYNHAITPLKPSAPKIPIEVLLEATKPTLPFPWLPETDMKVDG
Experimental: For control, a sample added with no moranoline was used.
The activity of β-amylase was determined by the 3,5-dinitrosalicylic acid method of Example 37.

OC[C@H]1NC[C@H](O)[C@@H](O)[C@@H]1O [moranoline] showed an activity at 25000 µg/mL (immobilized CGTase; 0 h, day 0, 55° C., start made 100) of 100%, an activity at 25000 µg/mL (immobilized CGTase; 336 h, day 14, 55° C.) of 100% and an activity at 25000 µg/mL (immobilized CGTase; 504 h, day 21, 55° C.) of 103%. It also gave an activity at 25000 µg/mL (immobilized CGTase; 672 h, day 28, 55° C.) of 102%, an activity at 25000 µg/mL (immobilized CGTase; 888 h, day 37, 55° C.) of 101% and an activity at 25000 µg/mL (immobilized CGTase; 1272 h, day 53, 55° C.) of 102%. For the same compound, the activity at 25000 µg/mL (immobilized CGTase; 1560 h, day 65, 55° C.) was 104%, the activity at 25000 µg/mL (immobilized CGTase; 1872 h, day 78, 55° C.) was 101% and the activity at 25000 µg/mL (immobilized CGTase; 2232 h, day 93, 55° C.) was 99.7%. The activity at 25000 µg/mL (immobilized CGTase; 2400 h, day 100, 55° C.) was 100%, the activity at 25000 µg/mL (immobilized CGTase; 2856 h, day 119, 55° C.) was 97% and the activity at 25000 µg/mL (immobilized CGTase; 3360 h, day 140, 55° C.) was 100%. For the same compound, the activity at 25000 µg/mL (immobilized CGTase; 3912 h, day 163, 55° C.) was 99.3%, the activity at 25000 µg/mL (immobilized CGTase; 4272 h, day 178, 55° C.) was 98.4% and the activity at 25000 µg/mL (immobilized CGTase; 4752 h, day 198, 55° C.) was 92.5%. For the same compound, the activity at 25000 µg/mL (immobilized CGTase; 5040 h, day 210, 55° C.) was 95.6%, the activity at 25000 µg/mL (immobilized CGTase; 5544 h, day 231, 55° C.) was 92.5% and the activity at 25000 µg/mL (immobilized CGTase; 5904 h, day 246, 55° C.) was 93%. For the same compound, the activity at 25000 µg/mL (immobilized CGTase; 6288 h, day 262, 55° C.) was 92.3%, the activity at 25000 µg/mL (immobilized CGTase; 6576 h, day 274, 55° C.) was 92.5% and the activity at 25000 µg/mL (immobilized CGTase; 6912 h, day 288, 55° C.) was 91.7%. It also gave an activity at 25000 µg/mL (immobilized CGTase; 7248 h, day 302, 55° C.) of 92%, an activity at 25000 µg/mL (immobilized CGTase; 7728 h, day 322, 55° C.) of 92.7% and an activity at 25000 µg/mL (immobilized CGTase; 8136 h, day 339, 55° C.) of 91.5%. For the same compound, the activity at 25000 µg/mL (immobilized CGTase; 8472 h, day 353, 55° C.) was 93.9%, the activity at 25000 µg/mL (immobilized CGTase; 8784 h, day 366, 55° C.) was 90% and the activity at 25000 µg/mL (immobilized CGTase; 9912 h, day 413, 55° C.) was 90%. For the same compound, the “stabilizing action (residual activity, FIG. 6)” value (β-amylase) was “stabilizing action”.
